In the supplement of paper PMC10307832:

Tests used:
Assay in all cases: relative viability (nuclei count vs DMSO), 5 days (fraction); higher = more cells survive
Linsitinib + Crizotinib = compound: C[C@]1(O)C[C@@H](c2nc(-c3ccc4ccc(-c5ccccc5)nc4c3)c3c(N)nccn32)C1 [Linsitinib] + C[C@@H](Oc1cc(-c2cnn(C3CCNCC3)c2)cnc1N)c1c(Cl)ccc(F)c1Cl [Crizotinib] (partner 1 µM)
Outline: (§1)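 Lung cancer cell lines in 1536-well plates got either a single drug or a fixed anchor-drug dose together with five library-drug doses (not always all listed) in √10 steps, by pin tool, on the day after seeding. Nuclei were counted after 5 days, and relative viability is the treated-to-vehicle ratio of nuclei counts. Values are medians of duplicate plates.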

Linsitinib + Olaparib = compound: C[C@]1(O)C[C@@H](c2nc(-c3ccc4ccc(-c5ccccc5)nc4c3)c3c(N)nccn32)C1 [Linsitinib] + O=C(c1cc(Cc2n[nH]c(=O)c3ccccc23)ccc1F)N1CCN(C(=O)C2CC2)CC1 [Olaparib] (partner 8 µM)
Outline: as §1

Ispinesib + Bortezomib = compound: Cc1ccc(C(=O)N(CCCN)[C@@H](c2nc3cc(Cl)ccc3c(=O)n2Cc2ccccc2)C(C)C)cc1 [Ispinesib] + CC(C)C[C@H](NC(=O)[C@H](Cc1ccccc1)NC(=O)c1cnccn1)B(O)O [Bortezomib] (partner 0.002 µM)
Outline: as §1

Ispinesib + Decitabine = compound: Cc1ccc(C(=O)N(CCCN)[C@@H](c2nc3cc(Cl)ccc3c(=O)n2Cc2ccccc2)C(C)C)cc1 [Ispinesib] + Nc1ncn([C@H]2C[C@H](O)[C@@H](CO)O2)c(=O)n1 [Decitabine] (partner 2 µM)
Outline: as §1

| Cell Line | relative viability (Linsitinib + Crizotinib; first compound 0.01 µM) | relative viability (Linsitinib + Crizotinib; first compound 0.03162 µM) | relative viability (Linsitinib + Crizotinib; first compound 0.1 µM) | relative viability (Linsitinib + Crizotinib; first compound 0.3162 µM) | relative viability (Linsitinib + Crizotinib; first compound 1 µM) | relative viability (Linsitinib + Olaparib; first compound 0.01 µM) | relative viability (Linsitinib + Olaparib; first compound 0.03162 µM) | relative viability (Linsitinib + Olaparib; first compound 0.1 µM) | relative viability (Linsitinib + Olaparib; first compound 0.3162 µM) | relative viability (Linsitinib + Olaparib; first compound 1 µM) | relative viability (Ispinesib + Bortezomib; first compound 0.003162 µM) | relative viability (Ispinesib + Bortezomib; first compound 0.01 µM) | relative viability (Ispinesib + Bortezomib; first compound 0.03162 µM) | relative viability (Ispinesib + Bortezomib; first compound 0.1 µM) | relative viability (Ispinesib + Decitabine; first compound 0.001 µM) | relative viability (Ispinesib + Decitabine; first compound 0.003162 µM) | relative viability (Ispinesib + Decitabine; first compound 0.01 µM) | relative viability (Ispinesib + Decitabine; first compound 0.03162 µM) | relative viability (Ispinesib + Decitabine; first compound 0.1 µM) | relative viability (Ispinesib + Bortezomib; first compound 0.001 µM) |
| --- | --- | --- | --- | --- | --- | --- | --- | --- | --- | --- | --- | --- | --- | --- | --- | --- | --- | --- | --- | --- |
| NCI-H2347 | 0.705 | 0.84 | 0.715 | 0.589 | 0.669 | 0.584 | 0.687 | 0.598 | 0.608 | 0.596 | 1 | 0.665 | 1.08 | 0.758 | 0.625 | 0.618 | 0.597 | 0.578 | 0.589 | – |
| NCI-H2405 | 0.878 | 0.772 | 0.794 | 0.67 | 0.769 | 0.881 | 0.879 | 0.886 | 0.705 | 0.699 | 1.05 | 1.11 | 0.924 | 0.81 | 0.754 | 0.741 | 0.845 | 0.831 | 0.695 | 1.02 |
| NCI-H3122 | 0.261 | 0.281 | 0.282 | 0.323 | 0.323 | 0.557 | 0.541 | 0.547 | – | 0.503 | 0.945 | 1.09 | 1.06 | 0.202 | 0.498 | 0.443 | 0.426 | 0.483 | 0.292 | 1.07 |
| PC-3 [JPC-3] | 1.05 | 0.967 | 0.974 | 0.879 | 0.84 | 1.16 | 1.1 | 1.2 | 1.04 | 1.02 | 0.869 | 0.903 | 0.763 | 0.297 | 0.838 | 0.867 | 0.781 | 0.796 | 0.465 | 0.796 |
| PC-14 | 0.837 | 0.914 | 0.916 | 0.869 | 0.794 | 0.26 | 0.177 | 0.303 | 0.233 | 0.263 | 1.01 | 0.962 | 0.71 | 0.0916 | 0.21 | 0.18 | 0.0598 | 0.0507 | 0.0665 | 0.859 |
| RERF-LC-KJ | 0.803 | 0.816 | 0.849 | 0.731 | 0.739 | 0.933 | 0.884 | 0.841 | 0.847 | 0.538 | 1.16 | 1.09 | 0.905 | 0.597 | 0.738 | 0.617 | 0.243 | 0.222 | 0.271 | 1.05 |
| SK-LU-1 | 0.805 | 0.752 | 0.859 | – | 0.993 | 0.428 | 0.419 | 0.552 | 0.41 | 0.468 | 1.39 | 1.48 | 0.585 | 0.461 | 0.605 | 0.62 | 0.608 | 0.57 | 0.361 | 1.32 |
| SW 1573 | 0.801 | 0.921 | 0.796 | 0.817 | 0.577 | 0.497 | 0.563 | 0.432 | 0.329 | 0.348 | 1.05 | 1.42 | 0.929 | 0.304 | 0.44 | 0.58 | 0.421 | 0.156 | 0.199 | 1.07 |
